Assay results: publication PMC4512978, “Synthesis and evaluation in rats of homologous series of [^18F]-labeled dopamine D2/3 receptor agonists based on the 2-aminomethylchroman scaffold as potential PET tracers” (EJNMMI Research, 2015)
“And” between values parts separate entries of the source, which are not always exact repeats. Identical values can stand only once.

Assays:
[1] = Ex vivo tissue uptake after the PET scan (gamma-counter); format: in vivo, Sprague-Dawley rats
Procedure: After the end of the PET scans (i.e., 98 ± 8 min after tracer injection), anesthetized animals were sacrificed by heart extirpation and dissected. Samples of brain and peripheral tissues were taken. All samples were weighed, and their radioactivity was measured in a gamma-counter.

striatal D2/3R = assay: Ex vivo autoradiography study in rats
Procedure: To further assess the specific binding of [^18F]FEt-AMC13 to the striatal D2/3R, two groups of rats were anesthetized, pre-treated with saline (n = 3) or raclopride (n = 3), and 26 ± 3 min later injected with a bolus of [^18F]FEt-AMC13 (4.2 ± 1.4 MBq, 0.14 ± 0.04 nmol/kg) into the penile vein. Rats were sacrificed by heart extirpation 35 min later. Brains were quickly extracted and separated into two halves along the sagittal symmetry plane or along the coronal plane spanning the thalamus.
One half of the brain (rostral or randomly taken left/right) was quickly frozen over liquid nitrogen and prepared for cutting on the microtome in the same manner as brains used for in vitro autoradiography. Slices 40 μm thick were cut, mounted on Superfrost glass slides, permitted to dry, and then directly applied to the phosphor storage screens.
(§1) Degree of D2/3R-specific binding of the tracers was characterized by BPND (as given above) or the specific binding ratio (SBR) given as target region activity/cerebellar activity - 1. Both were calculated under control conditions and in response to the raclopride challenge.

D2/3R = assay: In vitro autoradiography of rat brain slices; format: binding, Sprague-Dawley rats
Procedure: In vitro autoradiography assay was performed as previously described. Frozen brains of young (10–12 weeks of age; 300–350 g body weight) male Sprague-Dawley rats (Harlan, Netherlands) were cut at −12 °C into sagittal slices 20 μm thick using a Leica microtome, and the slices were thaw-mounted on Superfrost (70 × 22 mm, Fischer) adhesive slides. Only slices containing both striatal and cerebellar regions were used. The slides with slices mounted them were allowed to dry, then put into storage boxes with silica gel bags and stored at −80 °C.
On the day of the experiment (within 1 week from the preparation of the slices), the slides were taken out of storage and allowed to come to room temperature for 5–10 min. Then, 1–1.2 mL of incubation buffer (50 mM Tris-HCl, 5 mM KCl, 2 mM CaCl2, 2 mM MgCl2, 120 mM NaCl, pH 7.4 25 °C) was applied per slide, and the slides were pre-incubated for 15 min at room temperature. The buffer was then removed, and the slides were placed into staining jars containing radioligand solution (concentration range of 0.1–10 nM) in the incubation buffer with or without 10 μM raclopride (D2/3 antagonist) or 100 μM guanosine-5'-triphosphate sodium salt (GTP, stimulator of G-protein uncoupling from the receptors). After 35 min of incubation at 37 °C, slides were washed once with ice-cold incubation buffer (3.5 min) and dipped for 30 s into ice-cold distilled water to remove buffer salts.
After drying the slides in a stream of room-temperature air, they were exposed on phosphor storage screens for 6–10 h. The storage screens were read by Cyclone Storage Phosphor System (Packard Instruments Co.). Quantification of plate readings was done with OptiQuant software (version 3.00, Packard Instruments Co.).
as §1

[2] = raclopride 1 mg/kg, after PET scan

## Oc1ccc2c(c1)O[C@@H](CNCc1ccc(OCC[18F])cc1)CC2 [[^18F]FEt-AMC13]
[1]; 1 mg/kg raclopride
  Striatal SBR based on after-scan biodistribution measurements: 0.74 ± 0.27
[1]; 1 mg/kg raclopride, p = 0.17
  decrease of biodistribution-based striatal SBR: 31%
[1]; RAC
  Ex vivo uptake, Adipose tissue: 0.09±0.02 SUV
  Ex vivo uptake, Adrenal glands: 0.59±0.20 SUV
  Ex vivo uptake, Bladder: 0.83±0.64 SUV
  Ex vivo uptake, Blood cells: 0.06±0.01 SUV
  Ex vivo uptake, Bone: 0.17±0.05 SUV
  Ex vivo uptake, Bone marrow: 2.00±3.17 SUV
  Ex vivo uptake, Caecum: 0.63±0.84 SUV
  Ex vivo uptake, Duodenum: 4.01±4.63 SUV
  Ex vivo uptake, Heart: 0.16±0.02 SUV
  Ex vivo uptake, Kidney: 0.48±0.07 SUV
  Ex vivo uptake, Large intestine: 0.41±0.33 SUV
  Ex vivo uptake, Large intestine content: 0.09±0.12 SUV
  Ex vivo uptake, Liver: 1.43±0.30 SUV
  Ex vivo uptake, Lung: 1.38±0.20 SUV
  Ex vivo uptake, Muscle: 0.19±0.05 SUV
  Ex vivo uptake, Pancreas: 1.47±0.32 SUV
  Ex vivo uptake, Plasma: 0.23±0.01 SUV
  Ex vivo uptake, Prostate: 0.40±0.26 SUV
  Ex vivo uptake, Small intestine: 2.39±1.94 SUV
  Ex vivo uptake, Small intestine content: 24.6±32.8 SUV
  Ex vivo uptake, Spleen: 0.52±0.10 SUV
  Ex vivo uptake, Stomach: 2.09±1.19 SUV
  Ex vivo uptake, Submandibular gland: 0.28±0.06 SUV
  Ex vivo uptake, Testes: 0.42±0.10 SUV
  Ex vivo uptake, Thymus: 0.30±0.06 SUV
  Ex vivo uptake, Urine: 4.40±3.88 SUV
  Ex vivo uptake, Whole blood: 0.17±0.01 SUV
[1]; SAL
  Ex vivo uptake, Adipose tissue: 0.30±0.42 SUV
  Ex vivo uptake, Adrenal glands: 0.84±0.29 SUV
  Ex vivo uptake, Bladder: 1.00±0.52 SUV
  Ex vivo uptake, Blood cells: 0.07±0.01 SUV
  Ex vivo uptake, Bone: 0.24±0.21 SUV
  Ex vivo uptake, Bone marrow: 0.68±0.38 SUV
  Ex vivo uptake, Caecum: 0.46±0.29 SUV
  Ex vivo uptake, Duodenum: 1.15±0.25 SUV
  Ex vivo uptake, Heart: 0.15±0.04 SUV
  Ex vivo uptake, Kidney: 0.64±0.20 SUV
  Ex vivo uptake, Large intestine: 0.57±0.36 SUV
  Ex vivo uptake, Large intestine content: 0.06±0.03 SUV
  Ex vivo uptake, Liver: 1.51±0.14 SUV
  Ex vivo uptake, Lung: 1.67±0.41 SUV
  Ex vivo uptake, Muscle: 0.17±0.04 SUV
  Ex vivo uptake, Pancreas: 1.31±0.31 SUV
  Ex vivo uptake, Plasma: 0.22±0.04 SUV
  Ex vivo uptake, Prostate: 0.62±0.18 SUV
  Ex vivo uptake, Small intestine: 3.15±2.00 SUV
  Ex vivo uptake, Small intestine content: 54.2±57.7 SUV
  Ex vivo uptake, Spleen: 0.46±0.05 SUV
  Ex vivo uptake, Stomach: 1.36±0.35 SUV
  Ex vivo uptake, Submandibular gland: 0.36±0.12 SUV
  Ex vivo uptake, Testes: 0.40±0.06 SUV
  Ex vivo uptake, Thymus: 0.32±0.06 SUV
  Ex vivo uptake, Urine: 11.0±9.5 SUV
  Ex vivo uptake, Whole blood: 0.16±0.03 SUV
[1]; [2]
  Ex vivo uptake, Brainstem: 0.16 ± 0.04 SUV
  Ex vivo uptake, Cerebellum: 0.13 ± 0.02 SUV
  Ex vivo uptake, Cortex: 0.16 ± 0.04 SUV
  Ex vivo uptake, Hippocampus: 0.23 ± 0.08 SUV
  Ex vivo uptake, Mean brain uptake: 0.16 ± 0.04 SUV
  Ex vivo uptake, Olfactory bulbs: 0.15 ± 0.04 SUV
  Ex vivo uptake, Parietal bone: 0.10 ± 0.01 SUV
  Ex vivo uptake, Pituitary: 0.59 ± 0.20 SUV
  Ex vivo uptake, Rest of brain: 0.18 ± 0.03 SUV
  Ex vivo uptake, Striatum: 0.23 ± 0.08 SUV
  Ex vivo uptake, Thalamus + hypothalamus: 0.19 ± 0.05 SUV
[1]; saline pre-treated
  Striatal SBR based on after-scan biodistribution measurements: 1.07 ± 0.10
[1]; saline, after PET scan
  Ex vivo uptake, Brainstem: 0.18 ± 0.02 (6) SUV
  Ex vivo uptake, Cerebellum: 0.13 ± 0.01 (8) SUV
  Ex vivo uptake, Cortex: 0.18 ± 0.01 (5) SUV
  Ex vivo uptake, Hippocampus: 0.22 ± 0.02 (2) SUV
  Ex vivo uptake, Mean brain uptake: 0.18 ± 0.01 SUV
  Ex vivo uptake, Olfactory bulbs: 0.17 ± 0.01 (7) SUV
  Ex vivo uptake, Parietal bone: 0.10 ± 0.01 SUV
  Ex vivo uptake, Pituitary: 0.76 ± 0.08 SUV
  Ex vivo uptake, Rest of brain: 0.20 ± 0.02 (3) SUV
  Ex vivo uptake, Thalamus + hypothalamus: 0.19 ± 0.003 (4) SUV
[1]; saline, after PET scan (98 ± 8 min p.i.)
  Ex vivo uptake, Striatum: 0.28 ± 0.03 (1) SUV
Striatal D2/3R; 1 mg/kg raclopride
  Ex vivo autoradiography-based SBR: 1.06 ± 0.17
Striatal D2/3R; 1 mg/kg raclopride, p < 0.01
  decrease of ex vivo autoradiography-based SBR: 39%
Striatal D2/3R; 35 min post-injection, saline pre-treated rats
  Striatum-to-cerebellum uptake ratio (ex vivo autoradiography): 2.8 and 2.81 ± 0.29
Striatal D2/3R; saline pre-treated
  Ex vivo autoradiography-based SBR: 1.81 ± 0.29
D2/3R; 10 μM raclopride, compared to control conditions
  decrease of striatal SBR (D2/3R-specific binding) by raclopride in vitro: 81%
D2/3R; rat brain slices
  mean striatum-to-cerebellum uptake ratio in vitro: 4.4
D2/3R; with 10 μM raclopride
  Striatal SBR % change relative to control condition, Raclopride: −81%
  Striatal SBR, Raclopride: 0.63 ± 0.53
D2/3R; with 100 μM GTP
  Striatal SBR % change relative to control condition, GTP: −81%
  Striatal SBR, GTP: 0.66 ± 0.52
